Publication PMC4109680, “Identification and Preclinical Pharmacology of the γ-Secretase Modulator BMS-869780” (International Journal of Alzheimer's Disease, 2014)

Tested on: Aβ peptides (H4-APPsw)
Assay: Aβ peptide profile in H4-APPsw cultures by MALDI-TOF mass spectrometry and urea gel western blot
Type: cell-based, human
Description: For western blotting of Aβ peptides from H4-APPsw cell cultures, Aβ was immunoprecipitated directly from the cell culture medium and was eluted from the protein G beads by addition of lithium dodecyl sulfate (LDS) electrophoresis sample buffer (Invitrogen). Aβ peptides were separated by gel electrophoresis in the presence of 8 M urea, transferred to PVDF membrane, and detected by western blotting using monoclonal 26D6-HRP conjugate.
H4-APPsw cell cultures were grown in T-75 flasks until 75% confluent and rinsed with Dulbecco's phosphate buffered saline (DPBS; Gibco cat number 14109), and 20 mL of DMEM supplemented with L-glutamine (2 mM), geneticin, penicillin, streptomycin, and DMSO with or without BMS-869780 was added (final concentration of DMSO was 0.2%). After incubation for 24 hours at 37°C in 5% CO2, culture medium was removed, centrifuged to remove cells, and frozen in aliquots at −80°C. For immunoprecipitation, aliquots of cell medium (4 mL) were thawed, followed by the addition of protease inhibitor cocktail (Sigma P-8340) to a final concentration of 1%, 60 ng of [^15N]-Aβ1-40 synthetic peptide (rPeptide, 1101-1, Athens, GA), 30 μg of monoclonal 26D6, and 15 μg of monoclonal 4G8. After incubation for 20 min on ice, 80 μL of protein G agarose beads (Pierce Rockford, IL) was added, and incubation was continued overnight at 4°C. […]
Figure 3 BMS-869780 increased the levels of the shorter peptides Aβ1-38 and Aβ1-37. (a) Top panel: an equimolar mix of synthetic peptides Aβ1-37, Aβ1-38, Aβ1-39, Aβ1-40, [^15N]-Aβ1-40, and Aβ1-42 was evaluated by MALDI-TOF mass spectrometry. H4-APPsw cell cultures were treated with vehicle (0.1% DMSO—middle panel) or BMS-869780 (100 nM—bottom panel), [^15N]-Aβ1-40 was added, and Aβ peptides were immunoprecipitated and evaluated by MALDI-TOF mass spectrometry. […] Aβ peptides were separated by gel electrophoresis in the presence of urea and detected by western blotting. […]

COc1cc(Nc2nc3n(n2)CCCC[C@H]3c2ccc(F)cc2)ccc1-n1cnc(Cl)c1 [BMS-869780]
Aβ1-37 and Aβ1-38 levels by MALDI mass spectrometry (100 nM): dramatically increased | Aβ1-40 and Aβ1-42 levels by MALDI mass spectrometry (100 nM): essentially undetectable | Aβ1-37 and Aβ1-38 levels by western blot (100 nM and 10 nM): Increased levels
